Data: ChEMBL document CHEMBL3045943, “Novel N-aryl(alkaryl)-2-[(3-R-2-oxo-2H-[1,2,4]triazino[2,3-c]quinazoline-6-yl)thio]acetamides: synthesis, cytotoxicity, anticancer activity, COMPARE analysis and docking” (2013)

Columns and labels:
Format in all cases: functional
[1] = system: Photobacterium leiognathi; assay: Growth inhibition of Photobacterium leiognathi Sh1 assessed as bio-luminescence at 0.1 mg/ml after 16 to 18 hr by chronic action test relative to control; set-up: scale not given: the % may be the effect or the level left
[2] = system: Photobacterium leiognathi; assay: Growth inhibition of Photobacterium leiognathi Sh1 assessed as bio-luminescence at 0.1 mg/ml after 10 min by acute action test relative to control; set-up: scale not given: the % may be the effect or the level left
[3] = system: Photobacterium leiognathi; assay: Growth inhibition of Photobacterium leiognathi Sh1 assessed as bio-luminescence at 0.25 mg/ml after 16 to 18 hr by chronic action test relative to control; set-up: scale not given: the % may be the effect or the level left
[4] = system: Photobacterium leiognathi; assay: Growth inhibition of Photobacterium leiognathi Sh1 assessed as bio-luminescence at 0.25 mg/ml after 10 min by acute action test relative to control; set-up: scale not given: the % may be the effect or the level left
[5] = system: Photobacterium leiognathi; assay: Growth inhibition of Photobacterium leiognathi Sh1 assessed as bio-luminescence at 0.025 mg/ml after 16 to 18 hr by chronic action test relative to control; set-up: scale not given: the % may be the effect or the level left
[6] = system: Photobacterium leiognathi; assay: Growth inhibition of Photobacterium leiognathi Sh1 assessed as bio-luminescence at 0.025 mg/ml after 10 min by acute action test relative to control; set-up: scale not given: the % may be the effect or the level left
LOX IMVI = assay: Cytotoxicity against Homo sapiens (human) LOXIMVI cells assessed as cell growth at 10 uM after 48 hr by SRB assay relative to control; conditions: read-out: Activity
K562 = assay: Cytotoxicity against Homo sapiens (human) K562 cells assessed as cell growth at 10 uM after 48 hr by SRB assay relative to control; conditions: K562, 48 h, read-out: Activity
MOLT-4 = assay: Cytotoxicity against Homo sapiens (human) MOLT4 cells assessed as cell growth at 10 uM after 48 hr by SRB assay relative to control; conditions: MOLT-4, 48 h, read-out: Activity
UO-31 = assay: Cytotoxicity against Homo sapiens (human) UO31 cells assessed as cell growth at 10 uM after 48 hr by SRB assay relative to control; conditions: UO-31, 48 h, read-out: Activity
SR = assay: Cytotoxicity against Homo sapiens (human) SR cells assessed as cell growth at 10 uM after 48 hr by SRB assay relative to control; conditions: read-out: Activity
NCI-H522 = assay: Cytotoxicity against Homo sapiens (human) NCI-H522 cells assessed as cell growth at 10 uM after 48 hr by SRB assay relative to control; conditions: NCI-H522, 48 h, read-out: Activity
U-251 = assay: Cytotoxicity against Homo sapiens (human) U251 cells assessed as cell growth at 10 uM after 48 hr by SRB assay relative to control; conditions: U-251, 48 h, read-out: Activity

## Cc1ccc(-c2nn3c(SCC(=O)Nc4ccc(F)cc4)nc4ccccc4c3nc2=O)cc1
[1]
  Activity: 133.33%
[2]
  Activity: 36.73%
[3]
  Activity: 166.67%
[4]
  Activity: 8.16%
[5]
  Activity: 250%
[6]
  Activity: 75.51%

## Cc1ccc(-c2nn3c(SCC(=O)Nc4ccc(Cl)cc4)nc4ccccc4c3nc2=O)cc1
[1]
  Activity: 93.75%
[2]
  Activity: 63.83%
[3]
  Activity: 37.5%
[4]
  Activity: 31.91%
[5]
  Activity: 75%
[6]
  Activity: 68.09%

## Cc1nn2c(SCC(=O)Nc3ccccc3C(F)(F)F)nc3ccccc3c2nc1=O
[1]
  Activity: 100%
[2]
  Activity: 86.67%
[3]
  Activity: 97.14%
[4]
  Activity: 88.89%
[5]
  Activity: 100%
[6]
  Activity: 88.89%

## O=C(CSc1nc2ccccc2c2nc(=O)c(-c3ccccc3)nn12)Nc1cccc(C(F)(F)F)c1
[1]
  Activity: 203.13%
[2]
  Activity: 100%
[3]
  Activity: 187.5%
[4]
  Activity: 46.67%
[5]
  Activity: 187.5%
[6]
  Activity: 96.67%

## COc1ccccc1NC(=O)CSc1nc2ccccc2c2nc(=O)c(-c3ccccc3)nn12
[1]
  Activity: 11.36%
[2]
  Activity: 63.46%
[3]
  Activity: 18.18%
[4]
  Activity: 53.85%
[5]
  Activity: 22.73%
[6]
  Activity: 71.15%

## O=C(CSc1nc2ccccc2c2nc(=O)c(-c3ccccc3)nn12)NCCc1ccccc1
[1]
  Activity: 400%
LOX IMVI
  growth at 10 µM: 61.1%
[2]
  Activity: 121.5%
[3]
  Activity: 57.1%
[4]
  Activity: 119.4%
[5]
  Activity: 222.2%
[6]
  Activity: 109.5%

## Cc1nn2c(SCC(=O)NCc3ccccc3F)nc3ccccc3c2nc1=O
[1]
  Activity: 233.3%
[2]
  Activity: 66.7%
[3]
  Activity: 200%
[4]
  Activity: 170%
K562
  growth at 10 µM: 77.8%
[5]
  Activity: 130.2%
[6]
  Activity: 116.7%

## Cc1nn2c(SCC(=O)Nc3ccccc3F)nc3ccccc3c2nc1=O
[1]
  Activity: 196.43%
[2]
  Activity: 73.03%
[3]
  Activity: 142.86%
[4]
  Activity: 50.56%
[5]
  Activity: 142.86%
[6]
  Activity: 84.27%

## Cc1nn2c(SCC(=O)Nc3cccc(Cl)c3)nc3ccccc3c2nc1=O
[1]
  Activity: 250%
[2]
  Activity: 99.1%
[3]
  Activity: 42.9%
[4]
  Activity: 104.5%
K562
  growth at 10 µM: 57.2%
[5]
  Activity: 185.2%
[6]
  Activity: 99.3%

## COc1ccc(CNC(=O)CSc2nc3ccccc3c3nc(=O)c(-c4ccccc4)nn23)cc1
[1]
  Activity: 44.4%
[2]
  Activity: 106.2%
[3]
  Activity: 40%
[4]
  Activity: 138.7%
MOLT-4
  growth at 10 µM: 78.7%
[5]
  Activity: 50%
[6]
  Activity: 111.5%

## Cc1nn2c(SCC(=O)Nc3ccccc3)nc3ccccc3c2nc1=O
[1]
  Activity: 61.11%
[2]
  Activity: 98.53%
[3]
  Activity: 57.78%
[4]
  Activity: 95.59%
[5]
  Activity: 88.89%
[6]
  Activity: 95.59%

## Cc1nn2c(SCC(=O)NCc3cccc(C(F)(F)F)c3)nc3ccccc3c2nc1=O
[1]
  Activity: 92.3%
[2]
  Activity: 75%
[3]
  Activity: 193.3%
[4]
  Activity: 100%
[5]
  Activity: 123.6%
[6]
  Activity: 66.7%
UO-31
  growth at 10 µM: 54.5%

## Cc1ccc(-c2nn3c(SCC(=O)Nc4ccccc4[N+](=O)[O-])nc4ccccc4c3nc2=O)cc1
[1]
  Activity: 250%
[2]
  Activity: 36%
[3]
  Activity: 50%
[4]
  Activity: 62.5%
[5]
  Activity: 93%
[6]
  Activity: 83.3%

## O=C(CSc1nc2ccccc2c2nc(=O)c(-c3ccccc3)nn12)NCc1cccc(C(F)(F)F)c1
[1]
  Activity: 10.67%
[2]
  Activity: 33.33%
[3]
  Activity: 0%
[4]
  Activity: 17.78%
[5]
  Activity: 13.33%
[6]
  Activity: 66.67%

## O=C(CSc1nc2ccccc2c2nc(=O)c(-c3ccccc3)nn12)Nc1ccc(Cl)cc1
[1]
  Activity: 212.8%
[2]
  Activity: 120%
[3]
  Activity: 87.5%
[4]
  Activity: 142.9%
MOLT-4
  growth at 10 µM: 77.5%
[5]
  Activity: 88.9%
[6]
  Activity: 100%

## Cc1nn2c(SCC(=O)NCCc3ccccc3)nc3ccccc3c2nc1=O
[1]
  Activity: 100%
[2]
  Activity: 87.5%
[3]
  Activity: 133.3%
[4]
  Activity: 100%
[5]
  Activity: 136.4%
[6]
  Activity: 72.2%
UO-31
  growth at 10 µM: 77.3%

## COc1ccc(CNC(=O)CSc2nc3ccccc3c3nc(=O)c(C)nn23)cc1
[1]
  Activity: 176%
[2]
  Activity: 130%
[3]
  Activity: 180%
[4]
  Activity: 151.5%
[5]
  Activity: 138.7%
SR
  growth at 10 µM: 71.5%
[6]
  Activity: 92.3%

## Cc1ccc(-c2nn3c(SCC(=O)Nc4ccc(C(F)(F)F)cc4)nc4ccccc4c3nc2=O)cc1
[1]
  Activity: 116.7%
[2]
  Activity: 113.3%
[3]
  Activity: 100%
[4]
  Activity: 142.5%
[5]
  Activity: 51.2%
SR
  growth at 10 µM: 66%
[6]
  Activity: 103.3%

## Cc1ccc(-c2nn3c(SCC(=O)Nc4cccc(F)c4)nc4ccccc4c3nc2=O)cc1
[1]
  Activity: 32.93%
[2]
  Activity: 93.48%
[3]
  Activity: 41.46%
[4]
  Activity: 65.22%
[5]
  Activity: 69.51%
[6]
  Activity: 97.83%

## COc1ccc(NC(=O)CSc2nc3ccccc3c3nc(=O)c(-c4ccc(C)cc4)nn23)cc1
[1]
  Activity: 117%
NCI-H522
  growth at 10 µM: 57.9%
[2]
  Activity: 106%
[3]
  Activity: 75%
[4]
  Activity: 142.9%
U-251
  growth at 10 µM: 61.1%
[5]
  Activity: 95.6%
[6]
  Activity: 88.3%

## Cc1ccc(CNC(=O)CSc2nc3ccccc3c3nc(=O)c(C)nn23)cc1
[1]
  Activity: 212.8%
[2]
  Activity: 100%
[3]
  Activity: 150%
[4]
  Activity: 128.6%
[5]
  Activity: 122.2%
SR
  growth at 10 µM: 81.8%
[6]
  Activity: 88.3%

## Cc1nn2c(SCC(=O)NCc3ccccc3)nc3ccccc3c2nc1=O
[1]
  Activity: 115.4%
[2]
  Activity: 87.5%
[3]
  Activity: 250%
[4]
  Activity: 91.7%
MOLT-4
  growth at 10 µM: 78.5%
[5]
  Activity: 72.7%
[6]
  Activity: 66.7%

## Cc1ccc(-c2nn3c(SCC(=O)Nc4ccccc4C(=O)O)nc4ccccc4c3nc2=O)cc1
NCI-H522
  growth at 10 µM: 78.2%

## COc1ccc(-c2nn3c(SCC(=O)Nc4ccccc4C)nc4ccccc4c3nc2=O)cc1
[1]
  Activity: 94.55%
[2]
  Activity: 82.46%
[3]
  Activity: 94.55%
[4]
  Activity: 68.42%
[5]
  Activity: 90.91%
[6]
  Activity: 96.49%

## O=C(CSc1nc2ccccc2c2nc(=O)c(-c3ccccc3)nn12)Nc1cccc(Cl)c1
[1]
  Activity: 100%
[2]
  Activity: 109.52%
[3]
  Activity: 101.39%
[4]
  Activity: 59.52%
[5]
  Activity: 101.39%
[6]
  Activity: 104.76%

## O=C(CSc1nc2ccccc2c2nc(=O)c(-c3ccccc3)nn12)Nc1ccccc1
[1]
  Activity: 83.33%
[2]
  Activity: 78.57%
[3]
  Activity: 80.56%
[4]
  Activity: 47.62%
[5]
  Activity: 90.28%
[6]
  Activity: 95.24%

## CN(C)[C@@H]1C(O)=C(C(N)=O)C(=O)[C@@]2(O)C(O)=C3C(=O)c4c(O)cccc4[C@@](C)(O)[C@H]3C[C@@H]12 [TETRACYCLINE]
[1]
  Activity: 0%
[2]
  Activity: 9.1%
[3]
  Activity: 0%
[4]
  Activity: 0%
[5]
  Activity: 0%
[6]
  Activity: 80.7%

## O=C(CSc1nc2ccccc2c2nc(=O)c(-c3ccccc3)nn12)Nc1cccc(F)c1
[1]
  Activity: 38.89%
[2]
  Activity: 90.91%
[3]
  Activity: 92.59%
[4]
  Activity: 96.36%
[5]
  Activity: 44.44%
[6]
  Activity: 94.55%

## Cc1cccc(NC(=O)CSc2nc3ccccc3c3nc(=O)c(C)nn23)c1
[1]
  Activity: 178.57%
[2]
  Activity: 98.92%
[3]
  Activity: 14.29%
[4]
  Activity: 73.12%
[5]
  Activity: 196.43%
[6]
  Activity: 96.77%

## COc1ccccc1CNC(=O)CSc1nc2ccccc2c2nc(=O)c(C)nn12
[1]
  Activity: 160%
[2]
  Activity: 110%
[3]
  Activity: 188%
[4]
  Activity: 139.4%
[5]
  Activity: 93.3%
SR
  growth at 10 µM: 75.6%
[6]
  Activity: 89.2%

## Cc1nn2c(SCC(=O)NCc3ccc(F)cc3)nc3ccccc3c2nc1=O
[1]
  Activity: 123.1%
[2]
  Activity: 78.8%
[3]
  Activity: 200%
[4]
  Activity: 91.7%
[5]
  Activity: 118.2%
[6]
  Activity: 77.8%
UO-31
  growth at 10 µM: 61.6%
